Results taken from patent US20240308991A1, “PROCESS FOR THE SYNTHESIS OF REACTIVE CAR[…] ANTIGEN […] C[…] A CARRIER MATERIAL” (KORANEX CAPITAL, priority 2021, published 2024).

C=CCO[C@H]1O[C@H](CO)[C@H](O)[C@H](O[C@@H]2O[C@H](CO)[C@H](O)[C@H](O)[C@H]2O)[C@H]1NC(C)=O
melting point: 230 to 232 °C
